Measurements: BindingDB's records for doi:10.1021/acsmedchemlett.5b00489 (Peking Union Medical College, 2016)

Assay: Antagonist activity at human recombinant CXCR2 assessed as inhibition of CXCL1-induced neutrophil chemotaxis after 45 mins by calcein-AM dye based plate reader method

Compound	IC50 [nM]
O=C(Nc1ccc(Cl)c(S(=O)(=O)N2CCNCC2)c1O)Nc1cccc(Cl)c1Cl	10000
O=C(Nc1ccc(Cl)c(S(=O)(=O)C2CCC2)c1O)Nc1cccc(F)c1Cl	13
NS(=O)(=O)c1c(Cl)ccc(NC(=O)Nc2cccc(Cl)c2Cl)c1O	316
CC(C)S(=O)(=O)c1c(Cl)ccc(NC(=O)Nc2cccc(F)c2Cl)c1O	10
C[C@@H]1CN(S(=O)(=O)c2c(Cl)ccc(NC(=O)Nc3cccc(F)c3Cl)c2O)C[C@H](C)O1	3160
O=C(Nc1ccc(Cl)c(S(=O)(=O)C2CCCC2)c1O)Nc1cccc(F)c1Cl	25
CC(C)S(=O)(=O)c1c(Cl)ccc(NC(=O)Nc2cccc(Cl)c2Cl)c1O	158
C[C@@H]1CN(S(=O)(=O)c2c(Cl)ccc(NC(=O)Nc3cccc(Cl)c3Cl)c2O)C[C@H](C)O1	15800
CC(C)(C)S(=O)(=O)c1c(Cl)ccc(NC(=O)Nc2cccc(F)c2Cl)c1O	40
O=C(Nc1ccc(Cl)c(S(=O)(=O)C2CCOC2)c1O)Nc1cccc(Cl)c1Cl (configuration not stated)	7.9
CCS(=O)(=O)c1c(Cl)ccc(NC(=O)Nc2cccc(Cl)c2Cl)c1O	6310
CN1CCC2(CCC(S(=O)(=O)c3c(Cl)ccc(NC(=O)Nc4cccc(F)c4Cl)c3O)CC2)CC1	25

More lines, in order of falling IC50, values ahead:

IC50 [nM]	Compound
2000	CC(C)N1CCN(S(=O)(=O)c2c(Cl)ccc(NC(=O)Nc3cccc(F)c3Cl)c2O)CC1
2000	CCN1CCN(S(=O)(=O)c2c(Cl)ccc(NC(=O)Nc3cccc(F)c3Cl)c2O)CC1
1000	CN1CCN(S(=O)(=O)c2c(Cl)ccc(NC(=O)Nc3cccc(Cl)c3Cl)c2O)CC1
631	CN1CC2(CC(S(=O)(=O)c3c(Cl)ccc(NC(=O)Nc4cccc(F)c4Cl)c3O)C2)C1
316	CN1CCN(S(=O)(=O)c2c(Cl)ccc(NC(=O)Nc3cccc(F)c3Cl)c2O)CC1
251	CN1CC[C@H](S(=O)(=O)c2c(Cl)ccc(NC(=O)Nc3cccc(Cl)c3Cl)c2O)C1
158	CN1CCC(S(=O)(=O)c2c(Cl)ccc(NC(=O)Nc3cccc(Cl)c3Cl)c2O)CC1
158	CCN1CCC(S(=O)(=O)c2c(Cl)ccc(NC(=O)Nc3cccc(F)c3Cl)c2O)CC1
100	CN1CCC[C@H](S(=O)(=O)c2c(Cl)ccc(NC(=O)Nc3cccc(F)c3Cl)c2O)CC1
79	CN1CC[C@H](S(=O)(=O)c2c(Cl)ccc(NC(=O)Nc3cccc(F)c3Cl)c2O)C1
79	O=C(Nc1ccc(Cl)c(S(=O)(=O)C2CCCCC2)c1O)Nc1cccc(F)c1Cl
25	CN1CCC(S(=O)(=O)c2c(Cl)ccc(NC(=O)Nc3cccc(F)c3Cl)c2O)CC1
7.9	O=C(Nc1ccc(Cl)c(C(=O)N2CCCC2)c1O)Nc1cccc(F)c1Cl
6.3	O=C(Nc1ccc(Cl)c(S(=O)(=O)C2CCOCC2)c1O)Nc1cccc(Cl)c1Cl
6.3	O=C(Nc1ccc(Cl)c(C(=O)N2CCCCC2)c1O)Nc1cccc(F)c1Cl
